For assay [1], the target named is T1, PAD4 (Homo sapiens (Human), UniProt Q9UM07). The experiment in a line: FP binding assay. Particulars: for actively inhibiting PAD4 enzyme activity, FP Binding assay: summary of Table 1.
Experimental: Binding of compounds with PAD4 was detected by FP assay. PAD4 was diluted to 1 uM in assay buffer (100 mM HEPES, 50 mM NaCl, 1 mM DTT, 5% Glycerol and 1 mM CHAPS) and added to wells containing various concentration of compounds or DMSO vehicle (1%) in a 384 well black plate. 10 nM of fluorescein labelled probe (JPAD-00085) was added to the plate.
Assay [2] has as its target T1, PAD4. In words: Ammonia release biochemical assay (citrullination).
Experimental: Ammonia Release Biochemical Assay
Citrullination assay was detected via ammonia release. […] The reaction was stopped after 60 min by addition of stop/detection buffer containing 50 mM EDTA, 2.6 mM of o-phthaladehyde and 2.6 mM DTT.
[3] abbreviates: Table 1, class A, read-out: IC50 value, ammonia release biochemical assay.
[4] abbreviates: read-out: NH3 release biochemical assay PAD4 IC50.

Structures can show the parent of a compound that is named as a salt.

T1 sequence (Q9UM07 whole entry): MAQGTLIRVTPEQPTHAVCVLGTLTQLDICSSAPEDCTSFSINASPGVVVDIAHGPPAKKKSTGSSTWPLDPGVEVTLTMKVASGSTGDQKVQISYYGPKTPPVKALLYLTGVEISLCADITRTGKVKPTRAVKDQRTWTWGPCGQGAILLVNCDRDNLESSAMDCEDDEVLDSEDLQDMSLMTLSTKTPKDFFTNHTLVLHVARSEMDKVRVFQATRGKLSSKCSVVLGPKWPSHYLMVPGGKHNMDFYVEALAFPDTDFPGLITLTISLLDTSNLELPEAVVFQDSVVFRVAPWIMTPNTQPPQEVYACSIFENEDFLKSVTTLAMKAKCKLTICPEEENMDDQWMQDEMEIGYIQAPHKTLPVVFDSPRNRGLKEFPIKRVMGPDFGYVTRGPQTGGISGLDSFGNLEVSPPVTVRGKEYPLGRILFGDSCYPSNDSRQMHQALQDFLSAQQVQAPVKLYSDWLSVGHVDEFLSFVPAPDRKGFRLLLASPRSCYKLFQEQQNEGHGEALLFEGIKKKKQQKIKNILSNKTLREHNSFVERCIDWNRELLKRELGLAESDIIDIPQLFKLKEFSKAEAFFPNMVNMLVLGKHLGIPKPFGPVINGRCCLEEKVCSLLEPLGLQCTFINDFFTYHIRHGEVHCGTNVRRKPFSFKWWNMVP

For orientation: IC50 means the midpoint of a concentration-inhibition curve. Turning to `Cc1c(-c2cc3ccccc3n2Cc2ccc(F)cc2)nc2cc(C(=O)N3CCC[C@@H](N)C3)ccn12` [Compound 13, (R)-(3-Aminopiperidin-1-yl)(2-(1-(4-fluorobenzyl)-1H-indol-2-yl)-3-methylimidazo[1,2-a]pyridin-7-yl)methanone], the IC50 is below 1000 nM on PAD4 [1], at most 1000 nM on PAD4 [2] (setting [3]) and below 1000 nM at PAD4 [2] (setting [4]). In addition, on PAD4 [1], the “actively inhibiting PAD4 enzyme activity, FP Binding assay” value is recorded as “actively inhibiting PAD4 enzyme activity”.
In the case of `Cc1c(-c2cc3ccccc3n2Cc2ccccn2)nc2cc(C(=O)N3CCC[C@@H](N)C3)ccn12` [Compound 16, (R)-(3-Aminopiperidin-1-yl)(3-methyl-2-(1-(pyridin-2-ylmethyl)-1H-indol-2-yl)imidazo[1,2-a]pyridin-7-yl)methanone], at PAD4 [1], the IC50 was below 1000 nM and the “actively inhibiting PAD4 enzyme activity, FP Binding assay” value was “actively inhibiting PAD4 enzyme activity”. For the same molecule, on PAD4 [2] (setting [4]), the IC50 is below 1000 nM.
Take `COc1ccc2cc(-c3nc4cc(C(=O)N5CCC[C@@H](N)C5)ccn4c3C)n(CC3CC3)c2c1` [Compound 23, (R)-(3-Aminopiperidin-1-yl)(2-(1-(cyclopropylmethyl)-6-methoxy-1H-indol-2-yl)-3-methylimidazo[1,2-a]pyridin-7-yl)methanone]: the IC50 on PAD4 [1] and at PAD4 [2] (setting [4]) was below 1000 nM throughout. Further, the “actively inhibiting PAD4 enzyme activity, FP Binding assay” value on PAD4 [1] is “actively inhibiting PAD4 enzyme activity”.
`Cc1c(-c2cc3ccc(F)cc3n2CC2CC2)nc2cc(C(=O)N3CCC[C@@H](N)C3)ccn12` [Compound 28, (R)-(3-Aminopiperidin-1-yl)(2-(1-(cyclopropylmethyl)-6-fluoro-1H-indol-2-yl)-3-methylimidazo[1,2-a]pyridin-7-yl)methanone]: the IC50 on PAD4 [1] and on PAD4 [2] (setting [4]) was below 1000 nM each time.
In the case of `Cc1c(-c2cc3cc(F)ccc3n2CC2CC2)nc2cc(C(=O)N3CCC[C@@H](N)C3)ccn12` [Compound 29, (R)-(3-Aminopiperidin-1-yl)(2-(1-(cyclopropylmethyl)-5-fluoro-1H-indol-2-yl)-3-methylimidazo[1,2-a]pyridin-7-yl)methanone], the IC50 at PAD4 [1] and on PAD4 [2] (setting [4]) was below 1000 nM each time.
Turning to `Cc1cccc2cc(-c3nc4cc(C(=O)N5CCC[C@@H](N)C5)ccn4c3C)n(CC3CC3)c12` [Compound 30, (R)-(3-Aminopiperidin-1-yl)(2-(1-(cyclopropylmethyl)-7-methyl-1H-indol-2-yl)-3-methylimidazo[1,2-a]pyridin-7-yl)methanone], the IC50 at PAD4 [1] and on PAD4 [2] (setting [4]) was below 1000 nM in each case.
In the case of `N[C@@H]1CCCN(C(=O)c2ccn3c(-c4ccccc4)c(-c4cc5ccccc5n4CC4CC4)nc3c2)C1` [Compound 32, (R)-(3-Aminopiperidin-1-yl)(2-(1-(cyclopropylmethyl)-1H-indol-2-yl)-3-phenylimidazo[1,2-a]pyridin-7-yl)methanone], the IC50 on PAD4 [1] and on PAD4 [2] (setting [4]) was above 10000 nM throughout.
In the case of `Cc1c(-c2cc3ccccc3n2Cc2ccsc2)nc2cc(C(=O)N3CCC[C@@H](N)C3)ccn12` [Compound 36, (R)-(3-aminopiperidin-1-yl)(3-methyl-2-(1-(thiophen-3-ylmethyl)-1H-indol-2-yl)imidazo[1,2-a]pyridin-7-yl)methanone], the IC50 at PAD4 [1] and at PAD4 [2] (setting [4]) was below 1000 nM throughout. For the same molecule, the “actively inhibiting PAD4 enzyme activity, FP Binding assay” value on PAD4 [1] was “actively inhibiting PAD4 enzyme activity”.
As to `CCn1c(-c2nc3cc(C(=O)N4CCC[C@@H](N)C4)ccn3c2C)cc2cc(F)ccc21` [Compound 39, (R)-(3-aminopiperidin-1-yl)(2-(1-ethyl-5-fluoro-1H-indol-2-yl)-3-methylimidazo[1,2-a]pyridin-7-yl)methanone], the IC50 is below 1000 nM on PAD4 [1], at most 1000 nM at PAD4 [2] (setting [3]) and below 1000 nM at PAD4 [2] (setting [4]). Also, at PAD4 [1], the “actively inhibiting PAD4 enzyme activity, FP Binding assay” value is given as “actively inhibiting PAD4 enzyme activity”.
Regarding `CCn1c(-c2nc3cc(C(=O)N4CCC[C@@H](N)C4)ccn3c2C)cc2ccc(F)cc21` [Compound 72, (R)-(3-aminopiperidin-1-yl)(2-(1-ethyl-6-fluoro-1H-indol-2-yl)-3-methylimidazo[1,2-a]pyridin-7-yl)methanone], the IC50 at PAD4 [2] (setting [4]) was below 1000 nM.
As to `Cc1c(-c2cc3ccc(F)cc3n2CC(C)C)nc2cc(C(=O)N3CCC[C@@H](N)C3)ccn12` [Compound 73, (R)-(3-aminopiperidin-1-yl)(2-(6-fluoro-1-isobutyl-1H-indol-2-yl)-3-methylimidazo[1,2-a]pyridin-7-yl)methanone], on PAD4 [2] (setting [4]), the IC50 was below 1000 nM.
Take `Cc1c(-c2cc3cc(F)ccc3n2Cc2ccncc2)nc2cc(C(=O)N3CCC[C@@H](N)C3)ccn12` [Compound 74, (R)-(3-aminopiperidin-1-yl)(2-(5-fluoro-1-(pyridin-4-ylmethyl)-1H-indol-2-yl)-3-methylimidazo[1,2-a]pyridin-7-yl)methanone]: on PAD4 [2] (setting [4]), the IC50 was below 1000 nM.
Turning to `COc1ccc(Cn2c(-c3nc4cc(C(=O)N5CCC[C@@H](N)C5)ccn4c3C)cc3cc(F)ccc32)cc1` [Compound 75, (R)-(3-aminopiperidin-1-yl)(2-(5-fluoro-1-(4-methoxybenzyl)-1H-indol-2-yl)-3-methylimidazo[1,2-a]pyridin-7-yl)methanone], the IC50 on PAD4 [2] (setting [4]) is below 1000 nM.
Take `Cc1c(-c2cc3cc(F)ccc3n2Cc2ccc(F)cc2)nc2cc(C(=O)N3CCC[C@@H](N)C3)ccn12` [Compound 76, (R)-(3-aminopiperidin-1-yl)(2-(5-fluoro-1-(4-fluorobenzyl)-1H-indol-2-yl)-3-methylimidazo[1,2-a]pyridin-7-yl)methanone]: on PAD4 [2] (setting [4]), the IC50 is below 1000 nM.
As for `Cc1c(-c2cc3cccc(Cl)c3n2Cc2ccc(F)cc2)nc2cc(C(=O)N3CCC[C@@H](N)C3)ccn12` [Compound 77, (R)-(3-aminopiperidin-1-yl)(2-(7-chloro-1-(4-fluorobenzyl)-1H-indol-2-yl)-3-methylimidazo[1,2-a]pyridin-7-yl)methanone], the IC50 at PAD4 [2] (setting [4]) is below 1000 nM.
In the case of `Cc1c(-c2cc3ccccc3n2CC(F)F)nc2cc(C(=O)N3CCC[C@@H](N)C3)ccn12` [Compound 78, (R)-(3-aminopiperidin-1-yl)(2-(1-(2,2-difluoroethyl)-1H-indol-2-yl)-3-methylimidazo[1,2-a]pyridin-7-yl)methanone Trifluoroacetic Acid Salt], the IC50 on PAD4 [2] (setting [4]) is below 1000 nM.
Take `Cc1c(-c2cc3ccccc3n2Cc2ccc(F)cn2)nc2cc(C(=O)N3CCC[C@@H](N)C3)ccn12` [Compound 79, (R)-(3-aminopiperidin-1-yl)(2-(1-((5-fluoropyridin-2-yl)methyl)-1H-indol-2-yl)-3-methylimidazo[1,2-a]pyridin-7-yl)methanone]: at PAD4 [2] (setting [4]), the IC50 is below 1000 nM.
Still for that read-out and setting: next, `COc1ccc2cc(-c3nc4cc(C(=O)N5CCC[C@@H](N)C5)ccn4c3C)n(Cc3ccc(F)cc3)c2c1` [Compound 80, (R)-(3-aminopiperidin-1-yl)(2-(1-(4-fluorobenzyl)-6-methoxy-1H-indol-2-yl)-3-methylimidazo[1,2-a]pyridin-7-yl)methanone]: below 1000 nM.
As for `COc1ccc2cc(-c3nc4cc(C(=O)N5CCC[C@@H](N)C5)ccn4c3C)n(CC(C)C)c2c1` [Compound 82, (R)-(3-aminopiperidin-1-yl)(2-(1-isobutyl-6-methoxy-1H-indol-2-yl)-3-methylimidazo[1,2-a]pyridin-7-yl)methanone], the IC50 on PAD4 [2] (setting [3]) is at most 1000 nM; on PAD4 [2] (setting [4]) it was below 1000 nM.
With `COc1ccc2cc(-c3nc4cc(C(=O)N5CCC[C@@H](N)C5)ccn4c3C)n(CC(F)F)c2c1` [Compound 83, (R)-(3-aminopiperidin-1-yl)(2-(1-(2,2-difluoroethyl)-6-methoxy-1H-indol-2-yl)-3-methylimidazo[1,2-a]pyridin-7-yl)methanone], the values for the IC50 at PAD4 [2] (setting [3]) and on PAD4 [2] (setting [4]) were at most 1000 nM and below 1000 nM, respectively.
With `COc1cc(Cn2c(-c3nc4cc(C(=O)N5CCC[C@@H](N)C5)ccn4c3C)cc3ccccc32)ccc1F` [Compound 85, (R)-(3-aminopiperidin-1-yl)(2-(1-(4-fluoro-3-methoxybenzyl)-1H-indol-2-yl)-3-methylimidazo[1,2-a]pyridin-7-yl)methanone], the values for the IC50 at PAD4 [2] (setting [3]) and on PAD4 [2] (setting [4]) were at most 1000 nM and below 1000 nM, respectively.

(Values after patent US11426412B2, “Imidazo-pyridine compounds as PAD inhibitors” (JUBILANT EPIPAD LLC, priority 2017, dated 2022).)
